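These data come from cells grown in 96-well plates and exposed to compound for 48 hours at five concentrations. GI50 marks 50% less growth. The concentration for full growth arrest is given as TGI.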
Experiments:
Assay in all cases: NCI-60 cell line screen, 48 h
[1] = tested on: UO-31 renal
[2] = tested on: SNB-19 CNS
[3] = tested on: TK-10 renal
[4] = tested on: MALME-3M melanoma
[5] = tested on: SK-OV-3 ovarian
[6] = tested on: HCC-2998 colon
[7] = tested on: A549 NSCLC
[8] = tested on: UACC-257 melanoma
[9] = tested on: U251 CNS
[10] = tested on: SK-MEL-2 melanoma
[11] = tested on: SNB-75 CNS
[12] = tested on: MOLT-4 leukemia
[13] = tested on: NCI/ADR-RES ovarian
[14] = tested on: UACC-62 melanoma
[15] = tested on: NCI-H522 lung
[16] = tested on: SF-268 CNS
[17] = tested on: MDA-MB-231 breast
[18] = tested on: COLO 205 colon
[19] = tested on: DU-145 prostate
[20] = tested on: OVCAR-8 ovarian
[21] = tested on: LOX IMVI melanoma
[22] = tested on: SF-295 CNS
[23] = tested on: SR leukemia
[24] = tested on: NCI-H23 lung
[25] = tested on: HCT-116 colon
[26] = tested on: HS 578T breast
[27] = tested on: NCI-H226 lung
[28] = tested on: HT29 colon
[29] = tested on: HOP-92 NSCLC
[30] = tested on: KM12 colon
[31] = tested on: IGROV1 ovarian
[32] = tested on: T-47D breast
[33] = tested on: HCT-15 colon
[34] = tested on: SN12C renal
[35] = tested on: CCRF-CEM leukemia
[36] = tested on: HL-60(TB) leukemia
[37] = tested on: HOP-62 NSCLC
[38] = tested on: M14 melanoma
[39] = tested on: EKVX NSCLC
[40] = tested on: RPMI-8226 leukemia
[41] = tested on: 786-0 renal
[42] = tested on: CAKI-1 renal
[43] = tested on: SK-MEL-5 melanoma
[44] = tested on: SF-539 CNS
[45] = tested on: SW-620 colon
[46] = tested on: PC-3 prostate
[47] = tested on: OVCAR-4 ovarian
[48] = tested on: BT-549 breast
[49] = tested on: ACHN renal
[50] = tested on: RXF 393 renal
[51] = tested on: OVCAR-3 ovarian
[52] = tested on: K-562 leukemia
[53] = tested on: NCI-H460 lung
[54] = tested on: OVCAR-5 ovarian
[55] = tested on: MDA-MB-435
[56] = tested on: MCF7 breast
[57] = tested on: SK-MEL-28 melanoma
[58] = tested on: A498 renal

Compound `CC(=O)Nc1ccc(-n2cnc3cc(-c4ccc(OCCN5CCCCC5)cc4)ccc32)cc1` has a GI50 [1] of 2.33 µM, a TGI [1] of 7.06 µM and a GI50 [2] of 8.53 µM. The TGI [2] was 33.1 µM, the GI50 [3] was 9.11 µM and the TGI [3] was 15.9 µM. For the same compound, the GI50 [4] was 2.46 µM, the TGI [4] was 7.59 µM and the GI50 [5] was 6.2 µM. For the same compound, the TGI [5] was 12.2 µM, the GI50 [6] was 5.98 µM and the TGI [6] was 14.6 µM. It also gave a GI50 [7] of 1.4 µM, a TGI [7] of 5.74 µM and a GI50 [8] of 5.9 µM. It also gave a TGI [8] of 12 µM, a GI50 [9] of 4.16 µM and a TGI [9] of 9.14 µM. It also gave a GI50 [10] of 5.81 µM, a TGI [10] of 11.5 µM and a GI50 [11] of 4.11 µM. For the same compound, the TGI [11] was 8.31 µM, the GI50 [12] was 5.71 µM and the TGI [12] was 25 µM. The GI50 [13] was 7.75 µM, the TGI [13] was 22.5 µM and the GI50 [14] was 6.79 µM. For the same compound, the TGI [14] was 13 µM, the GI50 [15] was 6.79 µM and the TGI [15] was 13.7 µM. The GI50 [16] was 5.28 µM, the TGI [16] was 11.5 µM and the GI50 [17] was 5.33 µM. For the same compound, the TGI [17] was 13 µM, the GI50 [18] was 5.2 µM and the TGI [18] was 10.7 µM. For the same compound, the GI50 [19] was 10.2 µM, the TGI [19] was over 33.3 µM and the GI50 [20] was 6.07 µM. For the same compound, the TGI [20] was 14.8 µM, the GI50 [21] was 4.5 µM and the TGI [21] was 8.88 µM. It also gave a GI50 [22] of 5.5 µM, a TGI [22] of 10.6 µM and a GI50 [23] of 0.895 µM. It also gave a TGI [23] of 3.74 µM, a GI50 [24] of 5.07 µM and a TGI [24] of 11.6 µM. The GI50 [25] was 0.667 µM, the TGI [25] was 1.3 µM and the GI50 [26] was 4.15 µM. The TGI [26] was 10.8 µM, the GI50 [27] was 2.92 µM and the TGI [27] was 8.43 µM. For the same compound, the GI50 [28] was 1.12 µM, the TGI [28] was 3.92 µM and the GI50 [29] was 4.51 µM. For the same compound, the TGI [29] was 11.6 µM, the GI50 [30] was 0.358 µM and the TGI [30] was 5.76 µM. For the same compound, the GI50 [31] was 4.93 µM, the TGI [31] was 11.5 µM and the GI50 [32] was 6.34 µM. For the same compound, the TGI [32] was 17.2 µM, the GI50 [33] was 1.54 µM and the TGI [33] was 6.38 µM. It also gave a GI50 [34] of 4.48 µM, a TGI [34] of 9.72 µM and a GI50 [35] of 6.57 µM. For the same compound, the TGI [35] was 23.9 µM, the GI50 [36] was 5.26 µM and the TGI [36] was 18.2 µM. The GI50 [37] was 5.08 µM, the TGI [37] was 11.6 µM and the GI50 [38] was 5.34 µM. It also gave a TGI [38] of 10.4 µM, a GI50 [39] of 7.88 µM and a TGI [39] of 28 µM. The GI50 [40] was 5.16 µM, the TGI [40] was 12.7 µM and the GI50 [41] was 0.803 µM. The TGI [41] was 1.7 µM, the GI50 [42] was 6.01 µM and the TGI [42] was 11.7 µM. It also gave a GI50 [43] of 5.22 µM, a TGI [43] of 9.72 µM and a GI50 [44] of 1.64 µM. The TGI [44] was 6.47 µM, the GI50 [45] was 0.973 µM and the TGI [45] was 2.79 µM. The GI50 [46] was 3.91 µM, the TGI [46] was 9.83 µM and the GI50 [47] was 4.85 µM. For the same compound, the TGI [47] was 11.7 µM, the GI50 [48] was 4.88 µM and the TGI [48] was 9.77 µM. The GI50 [49] was 3.61 µM, the TGI [49] was 11.4 µM and the GI50 [50] was 3.04 µM. It also gave a TGI [50] of 8.04 µM, a GI50 [51] of 5.27 µM and a TGI [51] of 10.4 µM. It also gave a GI50 [52] of 0.944 µM, a TGI [52] of over 33.3 µM and a GI50 [53] of 1.49 µM. The TGI [53] was 5.3 µM, the GI50 [54] was 6.22 µM and the TGI [54] was 14.6 µM. For the same compound, the GI50 [55] was 5.81 µM, the TGI [55] was 10.4 µM and the GI50 [56] was 4.16 µM. For the same compound, the TGI [56] was 13.6 µM, the GI50 [57] was 4.45 µM and the TGI [57] was 9.06 µM.
For `O=c1c2cc(F)ccc2sc2c(NCCCN3CCCC3)nc3ccccc3c12`, the GI50 [1] was 1.59 µM, the TGI [1] was 4.18 µM and the GI50 [2] was 1.7 µM. It also gave a TGI [2] of 3.53 µM, a GI50 [3] of 1.99 µM and a TGI [3] of 3.65 µM. The GI50 [4] was 1.77 µM, the TGI [4] was 3.37 µM and the GI50 [5] was 2.35 µM. The TGI [5] was 7.79 µM, the GI50 [6] was 1.67 µM and the TGI [6] was 3.25 µM. The GI50 [7] was 1.87 µM, the TGI [7] was 3.83 µM and the GI50 [8] was 1.97 µM. For the same compound, the TGI [8] was 3.98 µM, the GI50 [9] was 1.81 µM and the TGI [9] was 3.62 µM. For the same compound, the GI50 [10] was 2.19 µM, the TGI [10] was 4.77 µM and the GI50 [11] was 1.43 µM. It also gave a TGI [11] of 3.14 µM, a GI50 [12] of 1.97 µM and a TGI [12] of 4.22 µM. The GI50 [13] was 1.99 µM, the TGI [13] was 4.49 µM and the GI50 [14] was 1.87 µM. The TGI [14] was 3.77 µM, the GI50 [15] was 1.97 µM and the TGI [15] was 3.96 µM. It also gave a GI50 [17] of 1.55 µM, a TGI [17] of 3.2 µM and a GI50 [19] of 2.07 µM. It also gave a TGI [19] of 3.94 µM, a GI50 [20] of 2.11 µM and a TGI [20] of 4.86 µM. For the same compound, the GI50 [21] was 1.73 µM, the TGI [21] was 3.28 µM and the GI50 [22] was 2.1 µM. The TGI [22] was 4.39 µM, the GI50 [23] was 2.75 µM and the TGI [23] was 6.51 µM. For the same compound, the GI50 [24] was 1.89 µM, the TGI [24] was 3.69 µM and the GI50 [25] was 1.63 µM. The TGI [25] was 3.19 µM, the GI50 [26] was 2.18 µM and the TGI [26] was 6.22 µM. For the same compound, the GI50 [27] was 3.37 µM, the TGI [27] was 15.4 µM and the GI50 [29] was 1.13 µM. It also gave a TGI [29] of 3.85 µM, a GI50 [58] of 1.74 µM and a TGI [58] of 7.65 µM. For the same compound, the GI50 [31] was 1.84 µM, the TGI [31] was 3.85 µM and the GI50 [32] was 3.89 µM. It also gave a TGI [32] of 23.8 µM, a GI50 [33] of 1.82 µM and a TGI [33] of 3.53 µM. It also gave a GI50 [34] of 1.97 µM, a TGI [34] of 4.6 µM and a GI50 [35] of 2.02 µM. It also gave a TGI [35] of 4.51 µM, a GI50 [36] of 2.06 µM and a TGI [36] of 4.58 µM. It also gave a GI50 [38] of 1.86 µM, a TGI [38] of 3.47 µM and a GI50 [39] of 2.58 µM. The TGI [39] was 8.48 µM, the GI50 [41] was 1.61 µM and the TGI [41] was 3.08 µM. The GI50 [42] was 1.48 µM, the TGI [42] was 2.95 µM and the GI50 [43] was 1.69 µM. The TGI [43] was 3.07 µM, the GI50 [44] was 1.69 µM and the TGI [44] was 3.19 µM. For the same compound, the GI50 [46] was 1.6 µM, the TGI [46] was 3.15 µM and the GI50 [47] was 2.01 µM. It also gave a TGI [47] of 4.61 µM, a GI50 [48] of 2.99 µM and a TGI [48] of 12 µM. For the same compound, the GI50 [49] was 1.69 µM, the TGI [49] was 3.18 µM and the GI50 [50] was 2.33 µM. It also gave a TGI [50] of 8.67 µM, a GI50 [51] of 2.07 µM and a TGI [51] of 4.72 µM. For the same compound, the GI50 [52] was 2.06 µM, the TGI [52] was 4.86 µM and the GI50 [54] was 1.85 µM. The TGI [54] was 3.74 µM, the GI50 [55] was 1.8 µM and the TGI [55] was 3.25 µM. The GI50 [56] was 1.22 µM, the TGI [56] was 2.89 µM and the GI50 [57] was 1.97 µM. The TGI [57] was 3.85 µM.

From PubChem BioAssay (NCI)
